Experiments:
[1] = tested on: CRE-directed transcription in MCF7 cells; assay: Transient transcription assay, somatostatin Δ-71 SS-CAT reporter; format: cell-based, human; details: for effect on CAT activity / CRE-directed transcription: intact cells, transient transcription assay
Description: The CRE oligonucleotide successfully interfered with the CRE-directed transcription in intact cells. To analyze the effect of CRE oligonucleotide in CRE-directed transcription, a transient transcription assay was performed using a reporter plasmid, somatostatin Δ-71 (CPE-containing promoter)-CAT (chloramphenicol acetyltransferase) fusion gene (Montminy et al., Proc. Natl. Acad. Sci. 83, 6682 [1986]). MCF7 cells were transfected with 5 μg of somatostatin-chloramphenicol acetyltransferase fusion gene (Δ-71 SS-CAT plasmid) and 4 μg of CRE (i.e., the 24-mer described in Example 1) or control oligonucleotide by the use of transfection reagent N-[1-(2,3-Dioleoyloxy)propyl]-N,N,N-trimethylammonium methysulfate (DOTAP). After 5 hours, fresh medium was added, and the cells were harvested at 48 to 72 hours, then assayed for CAT activity. Some samples were also treated with forskolin (10 μM), an compound with adenyl cyclase activating properties (i.e., a compound that increases intracellular cAMP concentrations), for the final 24 hours. Cell lysates were prepared as described by Gorman (Gorman, High efficiency gene transfer into mammalian cells, DNA Cloning, Vol II, pp 143-165, IRL press, Oxford, England [1985]). Lysates (75 μg of protein) were incubated with 0.4 μCi of [^14 C]chloramphenicol, 0.53 mM acetyl-CoA, and 250 mM Tris-HCl, pH 7.8 for 90 minutes at 37° C. Under these conditions, CAT activity was linear with time. Reaction products were analyzed by thin-layer chromatography (Gorman, supra).

[2] = tested on: cancer cells: MCF7, LNCaP, A549, OVCAR 8, LS174T, KB, MCF7-TH, HCT-15; assay: Cancer cell growth in vitro (cell counts); format: cell-based, human
Description: (§1) Cells (0.25-1×10^5 /well) were plated in a 6-well plate containing the growth medium at 37° C. The 24-mer-CRE palindrome oligonucleotide (i.e., as described in Example 1) or two-base mismatched control oligonucleotide (i.e., as described in Example 1) was added, one day after seeding, to duplicate wells at varying concentrations. To increase the delivery of oligonucleotides into the cell, transfection reagent DOTAP was added along with the oligonucleotides. Saline treated (untreated), DOTAP treated (0 concentration), CRE, or CRE control oligonucleotide treated cells were harvested after 4 days of treatment, and cell numbers were counted in duplicate by a Coulter Counter. […] In this figure, lines with closed circles represent cells treated with the 24-mer-CRE palindrome oligonucleotide, while lines with open boxes represent cells treated with the control, mismatch oligonucleotide.

[3] = tested on: CRE-protein complex (CRE DNA-binding proteins such as 43 kDa CREB); assay: Mobility shift assay of CRE DNA-protein complex formation in nuclear extracts of treated cells; format: cell-based, human; details: cells treated 150 nM for 2 days; MCF7, MCF10A and LNCaP; versus saline treated cells
Description: Cells were treated with saline (i.e., control cells), the CRE 24-mer (150 nM for 2 days), or a control oligonucleotide and nuclear extracts were prepared using the method of Dignam (Dignam et al., Nucleic Acid Res. 11, 1475 [1983]). The control oligonucleotide was 5'-[…]-3' (SEQ ID NO: 8), which is a copy of the CRE 24-mer with two mismatched bases included in each consensus sequence motif (i.e., it will not bind as well to transcription factors as will the consensus sequence oligonucleotide). Nuclear extracts were obtained from the cells and were analyzed by a mobility shift assay to compare the amount of CRE-protein bound complex between treated, untreated, and control samples. The DNA binding assay was performed by a method modified from that of Fried and Crothers (Fried and Crothers, Nucleic Acid Res. 9, 6506 [1981]). Briefly, nuclear extracts (10 μg protein) were pre-incubated with poly(dI-dC).cndot. poly (dI-dC) (1 μg), DTT (0.3 mM), and binding buffer (12 mM Tris pH 7.9, 2 mM MgCI2, 60 mM KCl, 0.12 mM EDTA, and 12% glycerol) with or without antiserum (2-4 μl) for 30 min at 4° C. ^32 P-labeled oligonucleotide (double-stranded CRE triplet, 5'-[…]-3'; SEQ ID NO:12) was then added and the reaction mixtures were incubated for 10 min at 37° C. The reaction mixtures were then separated on a 4% polyacrylamide gel at 200 V for 1.5 hours. The gel was dried and autoradiographed. […]

[4] = Cellular uptake of 32P-labeled oligonucleotide; format: in vitro ADME, human
Description: To examine the efficacy of cellular incorporation of the CRE oligonucleotides, we incubated ^32 P-labeled samples of CRE-palindromeoligonucleotide and control oligonucleotide with MCF7 and MCF10A cells. Cell-associated radioactivity was quantified. Within 5 hrs, about 10% of the total input oligonucleotide accumulated in the cell and the incorporation continued to rise thereafter reaching 20-25% maximum levels at 24 hr of oligonucleotide incubation. The amounts and the rates of the incorporation of oligonucleotide were similar between MCF7 and MCF10A cells and between the CRE-decoy oligonucleotide and control oligonucleotide.

[5] = tested on: normal cells MCF-10A and L-132; assay: Normal cell growth in vitro (cell counts); format: cell-based, human; details: MCF-10A and L-132, 4 days of treatment
Description: as §1

[6] = tested on: HCT-15 human MDR colon carcinoma; assay: Tumor growth in vivo, HCT-15 xenograft; set-up: species or system athymic mice; details: 5x/week, 4 weeks
Description: HCT-15 human MDR colon carcinoma tumor cells (2×10^6 cells) were inoculated subcutaneously into the left flank of athymic mice. The CRE or control oligonucleotide was injected intraperitoneally into mice at 0.01-0.1 mg/0.1 ml saline/mouse, daily, 5×/week for 4 weeks, when tumor size reached 30-50 mg ~10 days after cell inoculation. Tumor volumes were obtained from daily measurements of the longest and shortest diameters and calculated by the formula, 4/3πr^3 where r=(length+width)/4.

OVCAR8 cells = assay: Cell and nuclear morphology (Giemsa, Hoechst 33258), apoptosis; format: cell-based, human; details: OVCAR 8
Source text: After staining, the whole cells were visualized under an inverted microscope at ×240. […] The nuclear morphology of cells was visualized by a fluorescence microscope (Olympus BH2) at ×2600.

[7] = tested on: bcl-2 protein in MCF-10A cells; assay: Bcl-2 protein level by western blot; format: cell-based, human; details: MCF-10A normal cells
Description: (§2) Bcl-2 protein levels were measured by standard western blotting techniques known in the art using Anti-bcl-2 antibody.

[8] = tested on: bcl-2 protein in MCF7 cells; assay: Bcl-2 protein level by western blot; format: cell-based, human; details: 150 nM, 4 days
Description: as §2

[9] = tested on: protein kinase A (PKA) in cultured ovarian cancer cells; assay: PKA activity of cell extracts by column chromatography; format: cell-based; details: treated versus untreated ovarian cancer cells
Description: (§3) Cultured ovarian cancer cells were treated with and without CRE decoy oligonucleotide using the methods of Example 1 below. Extracts were analyzed by column chromatography for PKA activity.

[10] = tested on: protein kinase A (PKA) in HS68 cells; assay: as above; format: cell-based, human; details: treated versus untreated HS68 cells
Description: as §3

[11] = tested on: normal human mammary epithelial, lung epithelial and human newborn foreskin fibroblast (HS68) cell lines; assay: Growth of normal cell lines; format: cell-based
[12] = summary in description, concentration not given

5'-GCTGACGTCGGCCTGACGTCAGC-3' (chemistry not given here) [SEQ ID NO:3, non-palindromic hairpin forming CRE oligonucleotide]
effect on CAT activity / CRE-directed transcription [1]: interfered with CRE-directed transcription

5'-TGACGGCATGACGGCATGACGGCA-3' (chemistry not given here)
growth inhibition ([2]; 150 nM, separate experiments): 30%
growth inhibition [2, 12]: 30%

5'-TGACGTCA TGACGTCA TGACGTCA-3' (TGACGTCATGACGTCATGACGTCA; chemistry not given here) [24-mer CRE oligonucleotide, transcription factor decoy]
formation of the CRE-protein complex [3]: marked decrease
inhibition of the CRE-directed transcription ([1]; 4 μg oligonucleotide with 5 μg Δ-71 SS-CAT, DOTAP, versus Δ-71 CAT alone): greater than 90%
maximum level of oligonucleotide incorporation ([4]; 24 hr of incubation): 20-25%
total input oligonucleotide accumulated in the cell ([4]; within 5 hrs): about 10%
IC50 ([2]; 4 days of treatment, with DOTAP, read-out: IC50, growth inhibition of cancer cells): 0.1 to 0.15 µM
growth of normal cells [5]: unaffected
toxicity ([6]; 0.01 or 0.1 mg/mouse i.p. daily): without causing toxicity
inhibition of tumor growth ([6]; 0.01 or 0.1 mg/mouse i.p. daily, versus saline treated tumors): greater than 85%
changes in cell morphology and apoptotic nuclei (OVCAR8 cells): appearance of apoptotic nuclei
bcl-2 level [7]: did not alter
bcl-2 level [8]: markedly reduced
PKA activity peaks (Type-1 and Type-2) [9]: no peaks
PKA activity [10]: did not show any differences
growth of normal cell lines [11]: not affected

5'-TGCCGTCATGCCGTCATGCCGTCA-3' (chemistry not given here) [24-mer CRE-hairpin sense oligonucleotide]
effect on CAT activity / CRE-directed transcription [1]: strongly inhibited
effect on CAT activity / CRE-directed transcription ([1]; listed as SEQ ID NO:10): strong inhibition
growth inhibition ([2]; 150 nM, separate experiments): 70%
growth inhibition [2, 12]: 70-80%

5'-TGTGGTCATGTGGTCATGTGGTCA-3' (DNA, backbone and methylation of C not given here) [reference compound]
formation of the CRE-protein complex [3]: same or similar intensity band
effect on CAT activity / CRE-directed transcription [1]: no inhibitory effect
growth inhibitory effect ([2]; 4 days of treatment, with DOTAP): no growth inhibitory effect
tumor growth inhibitory effect ([6]; i.p. daily): no growth inhibitory effect
changes in cell morphology and apoptotic nuclei (OVCAR8 cells): not observed
bcl-2 level [7]: no effect
bcl-2 level [8]: no effect

24-mer CRE-hairpin sense and antisense oligonucleotides in combination: two complementary hairpin-forming oligonucleotides combined, producing a cruciform structure (sense TGCCGTCATGCCGTCATGCCGTCA; antisense TGACGGCATGACGGCATGACGGCA; two hairpin-forming strands combined into cruciform structure, further chemistry not given here)
growth inhibition ([2]; 150 nM, separate experiments): over 80%
growth inhibition [2, 12]: over 80%

— patent publication US6060310A, “Transcription factor decoy and tumor growth inhibitor” (priority 1997, dated 2000)
